Assay results from patent publication US8680275B2, “Fused heterocyclic compounds as orexin receptor modulators” (Janssen Pharmaceutica NV, priority 2009, dated 2014).
pKi: −log10 of the molar value. Read-outs that look alike come from different tables or passages of the source.

Legend:
human orexin-2 receptor = human orexin-2 receptor (Homo sapiens (Human), UniProt O43614); test: Human orexin 2 receptor radioligand binding ([3H]-EMPA competition); conditions: HEK293 cells stably expressing human orexin-2 receptor; [3H]-EMPA 5 nM final; read-out: OR-2 Ki
Chain of human orexin-2 receptor (O43614 whole entry): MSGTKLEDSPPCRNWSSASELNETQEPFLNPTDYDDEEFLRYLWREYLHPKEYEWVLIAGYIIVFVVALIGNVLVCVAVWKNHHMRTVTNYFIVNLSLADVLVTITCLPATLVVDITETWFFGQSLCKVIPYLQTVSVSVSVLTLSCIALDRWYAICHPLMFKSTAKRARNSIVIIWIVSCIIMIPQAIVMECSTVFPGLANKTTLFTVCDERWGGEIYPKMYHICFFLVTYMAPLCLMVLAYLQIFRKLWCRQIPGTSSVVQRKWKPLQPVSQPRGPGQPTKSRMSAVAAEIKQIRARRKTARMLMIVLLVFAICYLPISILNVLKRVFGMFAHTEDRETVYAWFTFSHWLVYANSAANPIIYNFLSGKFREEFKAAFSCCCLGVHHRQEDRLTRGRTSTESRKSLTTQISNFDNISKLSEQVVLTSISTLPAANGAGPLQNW
Method in brief: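 Competition binding on HEK293 cells stably expressing human orexin-2 receptor, using 5 nM final [3H]-EMPA in PBS, compounds 0.1 nM to 10 μM (DMSO ≤0.1%). 60 min at room temperature, then filtration and scintillation counting; nonspecific binding defined with 10 μM of a reference antagonist.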

human orexin 1 receptor = human orexin 1 receptor (Homo sapiens (Human), UniProt O43613); test: Human orexin 1 receptor radioligand binding ([3H]-SB674042 competition); conditions: read-out: OR-1 Ki
Chain of human orexin 1 receptor (O43613 whole entry): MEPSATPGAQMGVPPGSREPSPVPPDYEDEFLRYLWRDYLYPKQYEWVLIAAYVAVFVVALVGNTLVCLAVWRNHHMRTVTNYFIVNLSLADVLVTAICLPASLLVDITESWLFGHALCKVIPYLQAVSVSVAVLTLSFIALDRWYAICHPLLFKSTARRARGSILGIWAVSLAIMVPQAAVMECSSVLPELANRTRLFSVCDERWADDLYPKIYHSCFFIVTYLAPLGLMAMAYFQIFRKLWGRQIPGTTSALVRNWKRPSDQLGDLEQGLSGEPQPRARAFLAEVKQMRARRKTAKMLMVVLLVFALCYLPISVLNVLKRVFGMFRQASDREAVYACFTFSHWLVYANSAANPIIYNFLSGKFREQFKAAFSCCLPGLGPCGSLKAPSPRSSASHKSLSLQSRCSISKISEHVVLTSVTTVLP
Method in brief: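 CHO cells stably expressing human OX1R incubated 60 min at room temperature with [3H]-SB674042 and compounds (7 concentrations, 0.1 nM–10 μM; DMSO ≤0.1%) in PBS. Nonspecific binding defined with 10 μM of a reference urea antagonist; bound radioactivity measured by filtration and scintillation counting.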

[1] = CHO cells stably expressing human orexin 1 receptor, [3H]-SB674042 4 nM final

Cc1cc(C)nc(N2C[C@@H]3CCN(C(=O)c4cccc5c4-c4ccccc4C5)C[C@@H]32)n1 [Example 167, (1R,6S)-8-(4,6-Dimethylpyrimidin-2-yl)-3-(9H-fluoren-4-ylcarbonyl)-3,8-diazabicyclo[4.2.0]octane]
pKi (human orexin-2 receptor): 7.26
pKi (human orexin 1 receptor; [1]): 6.66

Cc1cncc(N2C[C@@H]3CCN(C(=O)c4cc(F)ccc4-n4nccn4)C[C@@H]32)n1 [Example 111, (1R,6S)-3-{[5-Fluoro-2-(2H-1,2,3-triazol-2-yl)phenyl]carbonyl}-8-(6-methylpyrazin-2-yl)-3,8-diazabicyclo[4.2.0]octane]
pKi (human orexin-2 receptor): 6.75
pKi (human orexin 1 receptor; [1]): 5.30

COc1ccc(-n2nccn2)c(C(=O)N2CC[C@H]3CN(c4cc(C(F)(F)F)ccn4)[C@H]3C2)c1 [Example 140, (1R,6S)-3-{[5-Methoxy-2-(2H-1,2,3-triazol-2-yl)phenyl]carbonyl}-8-[4-(trifluoromethyl)pyridin-2-yl]-3,8-diazabicyclo[4.2.0]octane]
pKi (human orexin-2 receptor): 7.15
pKi (human orexin 1 receptor; [1]): 5.97

Cc1cc(C)nc(N2C[C@@H]3CCN(C(=O)c4cc(F)ccc4-n4nccn4)C[C@@H]32)c1 [Example 128, (1R,6S)-8-(4,6-Dimethylpyridin-2-yl)-3-{[5-fluoro-2-(2H-1,2,3-triazol-2-yl)phenyl]carbonyl}-3,8-diazabicyclo[4.2.0]octane]
pKi (human orexin-2 receptor): 7.59
pKi (human orexin 1 receptor; [1]): 5.99

CN(C)c1ccnc(N2C[C@@H]3CCN(C(=O)c4cccc(F)c4-c4ncccn4)C[C@@H]32)c1 [Example 143, 2-{(1R,6S)-3-[(3-Fluoro-2-pyrimidin-2-ylphenyl)carbonyl]-3,8-diazabicyclo[4.2.0]oct-8-yl}-N,N-dimethylpyridin-4-amine]
pKi (human orexin-2 receptor): 5.05
pKi (human orexin 1 receptor; [1]): 5.00

Cc1cnc(C)c(N2C[C@@H]3CCN(C(=O)c4ccc(F)cc4-n4nccn4)C[C@@H]32)n1 [Example 31, (1R,6S)-[8-(3,6-Dimethyl-pyrazin-2-yl)-3,8-diaza-bicyclo[4.2.0]oct-3-yl]-(4-fluoro-2-[1,2,3]triazol-2-yl-phenyl)-methanone]
pKi (human orexin-2 receptor): 7.09
pKi (human orexin 1 receptor; [1]): ≤ 5.00

O=C(c1ccc(F)cc1-n1nccn1)N1CC[C@H]2CN(c3nc4cc(Cl)ccc4o3)[C@H]2C1 [Example 122, 5-Chloro-2-[(1R,6S)-3-{[4-fluoro-2-(2H-1,2,3-triazol-2-yl)phenyl]carbonyl}-3,8-diazabicyclo[4.2.0]oct-8-yl]-1,3-benzoxazole]
pKi (human orexin-2 receptor): 7.23
pKi (human orexin 1 receptor; [1]): 6.89

Cc1cc(N2C[C@@H]3CCN(C(=O)c4ccc(F)cc4-n4nccn4)C[C@@H]32)nc(C(F)(F)F)n1 [Example 34, (1R,6S)-(4-Fluoro-2-[1,2,3]triazol-2-yl-phenyl)-[8-(6-methyl-2-trifluoromethyl-pyrimidin-4-yl)-3,8-diaza-bicyclo[4.2.0]oct-3-yl]-methanone]
pKi (human orexin-2 receptor): 7.30
pKi (human orexin 1 receptor; [1]): 5.98

Cc1cc(N2C[C@@H]3CCN(C(=O)c4ccccc4-n4nccn4)C[C@@H]32)nc(N(C)C)n1 [Example 43, (1R,6S)-[8-(2-Dimethylamino-6-methyl-pyrimidin-4-yl)-3,8-diaza-bicyclo[4.2.0]oct-3-yl]-(2-[1,2,3]triazol-2-yl-phenyl)-methanone]
pKi (human orexin-2 receptor): 7.05
pKi (human orexin 1 receptor; [1]): 6.32

Cc1nc(C(=O)N2CC3CN(c4nccc(-c5ccccc5)n4)C3C2)c(-c2ccccc2F)s1 (stereo not drawn) [Example 52, 3-{[5-(2-Fluorophenyl)-2-methyl-1,3-thiazol-4-yl]carbonyl}-6-(4-phenylpyrimidin-2-yl)-3,6-diazabicyclo[3.2.0]heptane]
pKi (human orexin-2 receptor): 6.86
pKi (human orexin 1 receptor; [1]): 6.98

Cc1cc(C)nc(N2C[C@@H]3CCN(C(=O)c4ccccc4-c4ncccn4)C[C@@H]32)n1 [Example 28, (1R,6S)-[8-(4,6-Dimethyl-pyrimidin-2-yl)-3,8-diaza-bicyclo[4.2.0]oct-3-yl]-(2-pyrimidin-2-yl-phenyl)-methanone]
pKi (human orexin-2 receptor): 7.68
pKi (human orexin 1 receptor; [1]): 6.48

Cc1cc(C)nc(N2C[C@@H]3CCN(C(=O)c4ncccc4Br)C[C@@H]32)n1 [Example 181, (1R,6S)-3-[(3-Bromopyridin-2-yl)carbonyl]-8-(4,6-dimethylpyrimidin-2-yl)-3,8-diazabicyclo[4.2.0]octane]
pKi (human orexin-2 receptor): 5.89
pKi (human orexin 1 receptor; [1]): 5.00

O=C(c1ccccc1-c1cccnc1)N1CC[C@H]2CN(c3cnc4ccccc4n3)[C@H]2C1 [Example 14, (1R,6S)(2-Pyridin-3-yl-phenyl)-(8-quinoxalin-2-yl-3,8-diaza-bicyclo[4.2.0]oct-3-yl)-methanone]
pKi (human orexin-2 receptor): 6.94
pKi (human orexin 1 receptor; [1]): 7.02

O=C(c1ccccc1-c1ccccc1)N1CC2CN(c3nccc(-c4ccccc4)n3)C2C1 (stereo not drawn) [Example 47, 3-(Biphenyl-2-ylcarbonyl)-6-(4-phenylpyrimidin-2-yl)-3,6-diazabicyclo[3.2.0]heptane]
pKi (human orexin-2 receptor): 6.88
pKi (human orexin 1 receptor; [1]): 6.69

O=C(c1cc(F)ccc1-n1nccn1)N1CC[C@H]2CN(c3cccc(C(F)(F)F)n3)[C@H]2C1 [Example 129, (1R,6S)-3-{[5-Fluoro-2-(2H-1,2,3-triazol-2-yl)phenyl]carbonyl}-8-[6-(trifluoromethyl)pyridin-2-yl]-3,8-diazabicyclo[4.2.0]octane]
pKi (human orexin-2 receptor): 7.44
pKi (human orexin 1 receptor; [1]): 6.58

Cc1cncc(N2C[C@@H]3CCN(C(=O)c4ccc(F)cc4-n4nccn4)C[C@@H]32)n1 [Example 114, (1R,6S)-3-{[4-Fluoro-2-(2H-1,2,3-triazol-2-yl)phenyl]carbonyl}-8-(6-methylpyrazin-2-yl)-3,8-diazabicyclo[4.2.0]octane]
pKi (human orexin-2 receptor): 6.31
pKi (human orexin 1 receptor): 5.00

Cc1cc(C)nc(N2C[C@@H]3CCN(C(=O)c4c(C)noc4-c4cc(C)on4)C[C@@H]32)n1 [Example 179, 4′-{[(1R,6S)-8-(4,6-Dimethylpyrimidin-2-yl)-3,8-diazabicyclo[4.2.0]oct-3-yl]carbonyl}-3′,5-dimethyl-3,5′-biisoxazole]
pKi (human orexin-2 receptor): 5.96
pKi (human orexin 1 receptor; [1]): 5.00

Cc1cc(N2C[C@@H]3CCN(C(=O)c4ccc(C)nc4-n4ccnn4)C[C@@H]32)nc(C(F)(F)F)n1 [Example 91, (1R,6S)-3-{[6-Methyl-2-(1H-1,2,3-triazol-1-yl)pyridin-3-yl]carbonyl}-8-[6-methyl-2-(trifluoromethyl)pyrimidin-4-yl]-3,8-diazabicyclo[4.2.0]octane]
pKi (human orexin-2 receptor): 6.28
pKi (human orexin 1 receptor; [1]): 5.27

Cc1cc(C)nc(N2C[C@@H]3CCN(C(=O)c4cccc(C)c4-n4cccn4)C[C@@H]32)n1 [Example 133, (1R,6S)-8-(4,6-Dimethylpyrimidin-2-yl)-3-{[3-methyl-2-(1H-pyrazol-1-yl)phenyl]carbonyl}-3,8-diazabicyclo[4.2.0]octane]
pKi (human orexin-2 receptor): 7.44
pKi (human orexin 1 receptor; [1]): 6.26

COc1ccc(C(=O)N2CC[C@H]3CN(c4cc(N(C)C)ccn4)[C@H]3C2)c(-n2nccn2)c1 [Example 142, 2-[(1R,6S)-3-{[4-Methoxy-2-(2H-1,2,3-triazol-2-yl)phenyl]carbonyl}-3,8-diazabicyclo[4.2.0]oct-8-yl]-N,N-dimethylpyridin-4-amine]
pKi (human orexin-2 receptor): 5.05
pKi (human orexin 1 receptor; [1]): 5.00

COc1ccc(-c2ncccn2)c(C(=O)N2CC[C@H]3CN(c4nc(C)cc(C)n4)[C@H]3C2)c1F [Example 156, (1R,6S)-8-(4,6-Dimethylpyrimidin-2-yl)-3-[(2-fluoro-3-methoxy-6-pyrimidin-2-ylphenyl)carbonyl]-3,8-diazabicyclo[4.2.0]octane]
pKi (human orexin-2 receptor): 6.73
pKi (human orexin 1 receptor; [1]): 6.07

Cc1cc(C)nc(N2C[C@@H]3CCN(C(=O)c4c(-c5ccccc5)noc4C)C[C@@H]32)n1 [Example 175, (1R,6S)-8-(4,6-Dimethylpyrimidin-2-yl)-3-[(5-methyl-3-phenylisoxazol-4-yl)carbonyl]-3,8-diazabicyclo[4.2.0]octane]
pKi (human orexin-2 receptor): 6.31
pKi (human orexin 1 receptor; [1]): 5.00

Cc1cc(C)nc(N2C[C@@H]3CCN(C(=O)c4cccc(F)c4-n4nccn4)C[C@@H]32)c1 [Example 148, (1R,6S)-8-(4,6-Dimethylpyridin-2-yl)-3-{[3-fluoro-2-(2H-1,2,3-triazol-2-yl)phenyl]carbonyl}-3,8-diazabicyclo[4.2.0]octane]
pKi (human orexin-2 receptor): 7.44
pKi (human orexin 1 receptor; [1]): 6.07

O=C(c1c(F)cccc1-n1nccn1)N1CC[C@H]2CN(c3cnc4ccccc4n3)[C@H]2C1 [Example 117, 2-[(1R,6S)-3-{[2-Fluoro-6-(2H-1,2,3-triazol-2-yl)phenyl]carbonyl}-3,8-diazabicyclo[4.2.0]oct-8-yl]quinoxaline]
pKi (human orexin-2 receptor): 7.74
pKi (human orexin 1 receptor; [1]): 7.64

Cc1cc(C)nc(N2C[C@@H]3CCN(C(=O)c4cc(C)c(C)nc4-n4ccnn4)C[C@@H]32)n1 [Example 158, (1R,6S)-8-(4,6-Dimethylpyrimidin-2-yl)-3-{[5,6-dimethyl-2-(1H-1,2,3-triazol-1-yl)pyridin-3-yl]carbonyl}-3,8-diazabicyclo[4.2.0]octane]
pKi (human orexin-2 receptor): 6.77
pKi (human orexin 1 receptor; [1]): 5.49

Cc1cc(C)nc(N2C[C@@H]3CCN(C(=O)c4cccc(C)c4-n4ccnn4)C[C@@H]32)n1 [Example 138, (1R,6S)-8-(4,6-Dimethylpyrimidin-2-yl)-3-{[3-methyl-2-(1H-1,2,3-triazol-1-yl)phenyl]carbonyl}-3,8-diazabicyclo[4.2.0]octane]
pKi (human orexin-2 receptor): 7.15
pKi (human orexin 1 receptor; [1]): 5.78

Cc1cc(C)nc(N2C[C@@H]3CCN(C(=O)c4cc(F)ccc4-c4cncnc4)C[C@@H]32)n1 [Example 165, (1R,6S)-8-(4,6-Dimethylpyrimidin-2-yl)-3-[(5-fluoro-2-pyrimidin-5-ylphenyl)carbonyl]-3,8-diazabicyclo[4.2.0]octane]
pKi (human orexin-2 receptor): 6.26
pKi (human orexin 1 receptor; [1]): 5.00
